According to ChEMBL document CHEMBL2203027, “Lanostanoids from fungi: a group of potential anticancer compounds” (J Nat Prod, 2012):
In brackets after ≈: the same amount, converted by molar mass.

How the values were obtained:
[1] = species: Mus musculus; assay: Inhibition of TPA-induced tumor progression in mouse skin at 0.2 umol measured at week 20; format: functional
[2] = test system: DU-145; assay: Cytotoxicity against human DU145 cells; format: functional, cell-based
[3] = test system: HeLa; assay: Cytotoxicity against human HeLa cells; format: functional, cell-based; conditions: Homo sapiens, HeLa
[4] = Inhibition of rat microsomal 5-alpha reductase assessed as inhibition of conversion of [4-14C]testosterone to [4-14C] dihydrotestosterone after 10 mins
[5] = Cytotoxicity against human 95-D cells; format: functional, cell-based
[6] = test system: HL-60; assay: Cytotoxicity against human HL60 cells; format: functional, cell-based
[7] = test system: NUGC-3; assay: Cytotoxicity against human NUGC3 cells; format: functional, cell-based
[8] = biological target: T1, DNA topoisomerase 2-alpha (Homo sapiens, UniProt P11388); assay: Inhibition of topoisomerase 2
[9] = Growth inhibition of H-Ras transformed rat Rat2 cells; format: functional
[10] = test system: J82; assay: Growth inhibition of H-Ras expressing human J82 cells; format: functional
[11] = test system: SGC-7901; assay: Cytotoxicity against human SGC7901 cells; format: functional, cell-based
[12] = test system: P388; assay: Cytotoxicity against mouse P388 cells; format: functional, cell-based
[13] = test system: Bel-7402; assay: Cytotoxicity against human Bel7402 cells; format: functional, cell-based
[14] = test system: Lewis lung carcinoma cell line; assay: Antitumor activity against mouse LLC cells allografted in C57B/6 mouse assessed as inhibition of tumor metastasis at 28 mg/kg relative to control; format: functional; parameters: scale not given: the % may be the effect or the level left
[15] = test system: Lewis lung carcinoma cell line; assay: Antitumor activity against mouse LLC cells allografted in C57B/6 mouse assessed as tumor growth inhibition at 28 mg/kg relative to control; format: functional; conditions: read-out: TGI
[16] = biological target: T2, DNA topoisomerase 1 (Homo sapiens, UniProt P11387); assay: Inhibition of topoisomerase 1 in human HuH7 cells; format: cell-based, Huh-7
[17] = biological target: T1, DNA topoisomerase 2-alpha; assay: Inhibition of topoisomerase 2a in human HuH7 cells; format: cell-based, Huh-7
[18] = test system: Lewis lung carcinoma cell line; assay: Antitumor activity against mouse LLC cells allografted in mouse assessed as reduction in tumor size at 5 mg/kg, ip qd for 2 weeks measured on day 14 relative to control; format: functional; conditions: route intraperitoneal
[19] = test system: Lewis lung carcinoma cell line; assay: Antitumor activity against mouse LLC cells allografted in mouse assessed as reduction in tumor size at 10 mg/kg, ip qd for 2 weeks measured on day 14 relative to control; format: functional; conditions: route intraperitoneal
[20] = test system: Lewis lung carcinoma cell line; assay: Antitumor activity against mouse LLC cells allografted in mouse assessed as reduction in tumor size at 2 mg/kg, ip qd for 2 weeks measured on day 20 relative to control; format: functional; conditions: route intraperitoneal
[21] = test system: Lewis lung carcinoma cell line; assay: Antitumor activity against mouse LLC cells allografted in mouse assessed as reduction in tumor size at 2 mg/kg, ip qd for 2 weeks measured on day 14 relative to control; format: functional; conditions: route intraperitoneal
[22] = test system: Lewis lung carcinoma cell line; assay: Antitumor activity against mouse LLC cells allografted in mouse assessed as reduction in tumor size at 20 mg/kg, ip qd for 2 weeks measured on day 20 relative to control; format: functional; conditions: route intraperitoneal
[23] = test system: Lewis lung carcinoma cell line; assay: Antitumor activity against mouse LLC cells allografted in mouse assessed as reduction in tumor size at 10 mg/kg, ip qd for 2 weeks measured on day 20 relative to control; format: functional; conditions: route intraperitoneal
[24] = test system: Lewis lung carcinoma cell line; assay: Antitumor activity against mouse LLC cells allografted in mouse assessed as reduction in tumor size at 5 mg/kg, ip qd for 2 weeks measured on day 20 relative to control; format: functional; conditions: route intraperitoneal
[25] = test system: Lewis lung carcinoma cell line; assay: Antitumor activity against mouse LLC cells allografted in mouse assessed as reduction in tumor size at 20 mg/kg, ip qd for 2 weeks measured on day 14 relative to control; format: functional; conditions: route intraperitoneal
[26] = test system: Huh-7; assay: Cytotoxicity against human HuH7 cells; format: functional, cell-based
[27] = Cytotoxicity against human Hep3B cells; format: functional, cell-based, Hep 3B2
[28] = test system: K562; assay: Cytotoxicity against human K562 cells; format: functional, cell-based
[29] = test system: HepG2; assay: Cytotoxicity against human HepG2 cells; format: functional, cell-based
[30] = Cytotoxicity against mouse Meth-A cells; format: functional, cell-based
[31] = biological target: T2, DNA topoisomerase 1; assay: Inhibition of topoisomerase 1
[32] = Cytotoxicity against mouse LLC cells; format: functional, cell-based; conditions: Lewis lung carcinoma
[33] = test system: T47D; assay: Cytotoxicity against human T47D cells; format: functional, cell-based
[34] = test system: CCRF S-180; assay: Cytotoxicity against mouse S180 cells; format: functional, cell-based
[35] = test system: L1210; assay: Cytotoxicity against mouse L1210 cells; format: functional, cell-based
[36] = test system: COLO 205; assay: Cytotoxicity against human COLO205 cells; format: functional, cell-based
[37] = test system: P388; assay: Antitumor activity against mouse P388 cells allografted in CDF1 mouse assessed as increase in survival rate at 10 mg/kg; format: functional
[38] = test system: P388; assay: Antiproliferative activity against mouse P388 cells; format: functional, cell-based
[39] = test system: P388; assay: Antitumor activity against mouse P388 cells allografted in CDF1 mouse assessed as increase in survival rate at 3 mg/kg; format: functional
[40] = test system: A549; assay: Cytotoxicity against human A549 cells; format: functional, cell-based

T1 sequence (P11388 whole entry): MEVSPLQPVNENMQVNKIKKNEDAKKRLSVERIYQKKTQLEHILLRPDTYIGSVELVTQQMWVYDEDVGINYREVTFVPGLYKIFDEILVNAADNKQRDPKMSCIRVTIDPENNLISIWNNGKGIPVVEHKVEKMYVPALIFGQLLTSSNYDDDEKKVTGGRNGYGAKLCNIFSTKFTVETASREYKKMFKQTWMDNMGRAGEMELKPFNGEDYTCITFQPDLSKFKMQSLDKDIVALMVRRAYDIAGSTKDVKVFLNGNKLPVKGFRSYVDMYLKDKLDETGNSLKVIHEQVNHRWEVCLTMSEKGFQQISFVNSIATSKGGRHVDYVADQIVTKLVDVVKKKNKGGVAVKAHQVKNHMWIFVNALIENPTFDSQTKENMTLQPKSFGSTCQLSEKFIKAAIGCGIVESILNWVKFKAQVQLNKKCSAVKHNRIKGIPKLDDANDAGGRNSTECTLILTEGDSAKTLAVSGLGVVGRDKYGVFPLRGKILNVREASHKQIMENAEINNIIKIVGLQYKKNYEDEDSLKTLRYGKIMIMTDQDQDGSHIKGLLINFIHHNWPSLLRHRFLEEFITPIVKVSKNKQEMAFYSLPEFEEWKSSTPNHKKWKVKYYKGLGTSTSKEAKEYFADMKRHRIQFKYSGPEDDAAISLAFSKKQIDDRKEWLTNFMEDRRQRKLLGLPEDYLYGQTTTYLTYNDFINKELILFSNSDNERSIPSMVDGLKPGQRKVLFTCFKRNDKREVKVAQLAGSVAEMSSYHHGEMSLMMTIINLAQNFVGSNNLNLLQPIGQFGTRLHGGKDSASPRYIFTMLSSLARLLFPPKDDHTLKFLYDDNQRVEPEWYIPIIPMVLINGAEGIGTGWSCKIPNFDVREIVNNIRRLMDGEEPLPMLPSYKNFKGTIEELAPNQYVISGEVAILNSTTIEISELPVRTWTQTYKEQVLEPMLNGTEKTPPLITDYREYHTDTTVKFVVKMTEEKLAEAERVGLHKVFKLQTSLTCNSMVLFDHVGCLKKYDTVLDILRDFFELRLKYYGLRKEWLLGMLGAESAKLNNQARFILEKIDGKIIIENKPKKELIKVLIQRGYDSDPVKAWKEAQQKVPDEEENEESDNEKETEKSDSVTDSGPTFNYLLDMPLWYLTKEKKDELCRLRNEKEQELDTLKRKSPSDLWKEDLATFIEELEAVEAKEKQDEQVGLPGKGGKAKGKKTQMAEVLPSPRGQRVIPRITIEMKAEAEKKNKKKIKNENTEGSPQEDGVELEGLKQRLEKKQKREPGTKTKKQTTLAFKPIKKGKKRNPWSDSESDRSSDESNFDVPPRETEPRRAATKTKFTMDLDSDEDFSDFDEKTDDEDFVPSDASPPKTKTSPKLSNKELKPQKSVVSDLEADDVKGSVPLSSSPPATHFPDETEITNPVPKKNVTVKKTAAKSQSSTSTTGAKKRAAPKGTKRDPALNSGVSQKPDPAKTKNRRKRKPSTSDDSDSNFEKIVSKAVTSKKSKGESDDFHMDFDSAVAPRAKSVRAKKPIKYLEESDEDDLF
T2 sequence (P11387 whole entry): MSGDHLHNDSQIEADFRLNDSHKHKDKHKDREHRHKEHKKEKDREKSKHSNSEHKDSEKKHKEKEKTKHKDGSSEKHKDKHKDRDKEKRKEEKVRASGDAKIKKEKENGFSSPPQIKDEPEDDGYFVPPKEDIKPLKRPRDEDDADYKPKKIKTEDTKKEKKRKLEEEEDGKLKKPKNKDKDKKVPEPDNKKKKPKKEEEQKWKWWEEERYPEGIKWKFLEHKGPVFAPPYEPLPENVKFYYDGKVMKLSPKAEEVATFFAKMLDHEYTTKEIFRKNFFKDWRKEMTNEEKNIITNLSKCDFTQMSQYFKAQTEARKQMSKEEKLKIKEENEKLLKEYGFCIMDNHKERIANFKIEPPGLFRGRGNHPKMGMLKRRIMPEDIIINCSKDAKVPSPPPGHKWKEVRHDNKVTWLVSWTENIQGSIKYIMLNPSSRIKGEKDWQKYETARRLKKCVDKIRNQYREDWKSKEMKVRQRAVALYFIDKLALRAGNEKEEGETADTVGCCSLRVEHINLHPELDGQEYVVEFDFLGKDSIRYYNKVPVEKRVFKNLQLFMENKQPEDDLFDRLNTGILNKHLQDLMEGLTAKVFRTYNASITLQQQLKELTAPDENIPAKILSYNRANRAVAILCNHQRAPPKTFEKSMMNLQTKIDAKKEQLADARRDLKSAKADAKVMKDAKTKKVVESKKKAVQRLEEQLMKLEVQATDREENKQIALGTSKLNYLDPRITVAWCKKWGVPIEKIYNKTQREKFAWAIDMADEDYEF

## C=C(CC[C@@H](C(=O)O)[C@H]1[C@H](O)C[C@@]2(C)C3=CC[C@H]4C(C)(C)[C@H](OC(C)=O)CC[C@]4(C)C3=CC[C@]12C)C(C)C
[1]
  inhibition (INH): 92%

## C=C(CC[C@@H](C(=O)O)[C@H]1[C@H](O)C[C@@]2(C)C3=CC[C@H]4C(C)(CO)C(=O)CC[C@]4(C)C3=CC[C@]12C)C(C)C (stereo not given in full)
[2]
  IC50: 49.7 µM

## C/C(=C\CC[C@@H](C)[C@H]1C[C@H](O)[C@@]2(C)C3=CC[C@H]4C(C)(C)C(=O)CC[C@]4(C)C3=CC[C@]12C)CO
[3]
  IC50: 1 µM
[4]
  IC50: 41.9 µM

## CCO[C@@H]1C[C@H]2C(C)(C)[C@H](OC(C)=O)CC[C@]2(C)C2=C1[C@]1(C)[C@@H](OC(C)=O)C[C@H]([C@H](C)C(C/C=C(\C)C(=O)O)OC(C)=O)[C@@]1(C)CC2 (stereo not given in full)
[5]
  IC50: 46.5 µM
[3]
  IC50: 59.1 µM

## CC(=O)O[C@H]1CC[C@]2(C)C3=C(CC[C@H]2C1(C)C)[C@]1(C)CC[C@H]([C@@H](CCC=C(C)C)C(=O)O)[C@@]1(C)CC3 [ACETYL TRAMETENOLIC ACID]
[6]
  IC50: 25 µM

## C=C(CCC(C(=O)O)[C@H]1CC[C@@]2(C)C3=CC[C@H]4C(C)(C)C(=O)CC[C@]4(C)C3=CC[C@]12C)C(C)C (stereo not given in full) [DEHYDROEBURICONIC ACID]
[7]
  IC50: 38.4 µM
[8]
  IC50: 4.6 µM

## CC(C)=CCC[C@@H](C(=O)O)[C@H]1CC[C@@]2(C)C3=CC[C@H]4C(C)(C)[C@@H](O)CC[C@]4(C)C3=CC[C@]12C [DEHYDROTRAMETENOLIC ACID]
[9]
  GI50: 39.2 µM
[10]
  GI50: 26.7 µM

## CC(C)=CCCC(C(=O)O)[C@H]1CC[C@@]2(C)C3=CC[C@H]4C(C)(C)C(=O)CC[C@]4(C)C3=CC[C@]12C (stereo not given in full) [DEHYDROTRAMETENONIC ACID]
[7]
  IC50: 63.6 µM
[8]
  IC50: 37.5 µM

## COc1cc([C@@H]2c3cc4c(cc3[C@@H](O[C@@H]3O[C@@H]5CO[C@@H](C)O[C@H]5[C@H](O)[C@H]3O)[C@H]3COC(=O)[C@H]23)OCO4)cc(OC)c1O [ETOPOSIDE]
[11]
  IC50: 0.08 µM
[12]
  IC50: 0.08 µM
[13]
  IC50: 0.08 µM
[3]
  IC50: 0.08 µM

## C/C(=C/CC[C@@H](C)[C@H]1CC[C@@]2(C)C3=C(CC[C@]12C)[C@@]1(C)CCC(=O)C(C)(C)[C@@H]1CC3=O)C(=O)O [GANODERIC ACID DM]
[3]
  IC50: 101 µM
[4]
  IC50: 10.6 µM

## C/C(=C/CC[C@@H](C)[C@H]1C[C@H](O)[C@@]2(C)C3=CC[C@H]4C(C)(C)C(=O)CC[C@]4(C)C3=CC[C@]12C)C(=O)O [GANODERIC ACID TR]
[4]
  IC50: 8.5 µM

## CC(=O)O[C@@H](C/C=C(\C)C(=O)O)[C@@H](C)[C@H]1C[C@H](OC(C)=O)[C@@]2(C)C3=CC[C@H]4C(C)(C)[C@H](OC(C)=O)CC[C@]4(C)C3=CC[C@]12C [GANODERIC ACID T]
[14]
  Activity: 78%
[15]
  inhibition in vivo at 28 mg/kg: 63%

## CC(=O)O[C@H]1C[C@H]([C@H](C)CC/C=C(\C)C(=O)O)[C@@]2(C)CC=C3C(=CC[C@H]4C(C)(C)[C@@H](O)CC[C@]34C)[C@]12C [GANODERIC ACID X]
[16]
  IC50: 55 µM
[17]
  IC50: 25 µM

## C[C@H](CCC=C(CO)CO)[C@H]1CC[C@@]2(C)C3=CC[C@H]4C(C)(C)C(=O)CC[C@]4(C)C3=CC[C@]12C [GANODERIOL F]
[18]
  T/C: 64%
[19]
  T/C: 54%
[3]
  IC50: 5 µM
[20]
  T/C: 45%
[21]
  T/C: 38%
[22]
  T/C: 54%
[23]
  T/C: 63%
[24]
  T/C: 79%
[25]
  T/C: 48%
[26]
  IC50: 8.5 µM
[27]
  IC50: 25.3 µM
[28]
  IC50: 4 µM
[29]
  IC50: 17 µM
[30]
  IC50: 10.1 µg/mL (≈ 22.2 µM)
[31]
  IC50: 106 µM
[8]
  IC50: 17 µM
[32]
  IC50: 2 µg/mL (≈ 4.4 µM)
[33]
  IC50: 3 µg/mL (≈ 6.6 µM)
[34]
  IC50: 7.1 µg/mL (≈ 15.6 µM)

## CC[C@@]1(O)C(=O)OCc2c1cc1n(c2=O)Cc2cc3cc(O)ccc3nc2-1 [HYDROXYCAMPTOTHECIN]
[5]
  IC50: 21.3 µM
[3]
  IC50: 29.5 µM

## CC(C)=CC[C@@H](O)[C@@H](C)[C@H]1CC[C@@]2(C)C3=C(CC[C@]12C)[C@@]1(C)CC[C@H](O)C(C)(C)[C@@H]1CC3 [INOTODIOL]
[35]
  IC50: 110 µM
[36]
  IC50: 171 µM
[37]
  survival at 10 mg/kg: 20.8%
[38]
  IC50: 13.9 µM
[39]
  survival at 3 mg/kg: 9.7%
[6]
  IC50: 25 µM

## C=C(CC[C@@H](C(=O)O)[C@H]1[C@H](O)C[C@@]2(C)C3=CC[C@H]4C(C)(C)C(=O)CC[C@]4(C)C3=CC[C@]12C)C(C)C [POLYPORENIC ACID B]
[1]
  inhibition (INH): 83%
[40]
  IC50: 19.8 µM

## C=C(C)[C@@H]1CC=C2C(=CC[C@]3(C)[C@@H]([C@@H](CCC=C(C)C)C(=O)O)[C@H](O)C[C@@]23C)[C@@]1(C)CCC(=O)O [PORICOIC ACID B]
[1]
  inhibition (INH): 68%

## C=C(C)[C@@H]1CCC2=C(CC[C@]3(C)[C@@H]([C@@H](CCC=C(C)C)C(=O)O)[C@H](O)C[C@@]23C)[C@@]1(C)CCC(=O)O [PORICOIC ACID G]
[6]
  GI50: 0.0393 µM
